Reference: PMC3914206

Legend:
panel of 442 kinases [1] = molecular target: T1, panel of 442 kinases (Homo sapiens, UniProt P51956); format: binding; conditions: Compound Concentration 10 µM
T1 construct: purchased KINOMEscan
T1 sequence (P51956 1-506): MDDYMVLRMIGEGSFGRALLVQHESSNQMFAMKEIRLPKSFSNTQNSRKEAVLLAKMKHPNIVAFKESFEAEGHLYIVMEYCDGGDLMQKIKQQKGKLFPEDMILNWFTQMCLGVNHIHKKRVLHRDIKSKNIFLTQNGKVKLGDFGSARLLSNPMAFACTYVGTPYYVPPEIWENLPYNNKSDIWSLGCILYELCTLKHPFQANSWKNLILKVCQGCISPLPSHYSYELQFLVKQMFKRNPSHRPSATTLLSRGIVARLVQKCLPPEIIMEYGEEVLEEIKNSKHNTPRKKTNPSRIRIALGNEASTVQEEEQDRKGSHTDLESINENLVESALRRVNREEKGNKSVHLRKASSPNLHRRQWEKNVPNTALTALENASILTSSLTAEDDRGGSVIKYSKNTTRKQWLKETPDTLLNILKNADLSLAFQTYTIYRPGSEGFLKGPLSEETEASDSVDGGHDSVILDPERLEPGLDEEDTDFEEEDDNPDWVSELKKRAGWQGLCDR
Description: (§1) We assessed the selectivity of members of this scaffold using the KINOMEscan methodology across a near comprehensive panel of 442 kinases [[18,27]].

panel of 442 kinases [2] = molecular target: T2, panel of 442 kinases (Homo sapiens, UniProt Q9NQU5); format: binding; conditions: Compound Concentration 10 µM
T2 construct: purchased KINOMEscan
Description: as §1

T2 sequence (Q9NQU5 whole entry): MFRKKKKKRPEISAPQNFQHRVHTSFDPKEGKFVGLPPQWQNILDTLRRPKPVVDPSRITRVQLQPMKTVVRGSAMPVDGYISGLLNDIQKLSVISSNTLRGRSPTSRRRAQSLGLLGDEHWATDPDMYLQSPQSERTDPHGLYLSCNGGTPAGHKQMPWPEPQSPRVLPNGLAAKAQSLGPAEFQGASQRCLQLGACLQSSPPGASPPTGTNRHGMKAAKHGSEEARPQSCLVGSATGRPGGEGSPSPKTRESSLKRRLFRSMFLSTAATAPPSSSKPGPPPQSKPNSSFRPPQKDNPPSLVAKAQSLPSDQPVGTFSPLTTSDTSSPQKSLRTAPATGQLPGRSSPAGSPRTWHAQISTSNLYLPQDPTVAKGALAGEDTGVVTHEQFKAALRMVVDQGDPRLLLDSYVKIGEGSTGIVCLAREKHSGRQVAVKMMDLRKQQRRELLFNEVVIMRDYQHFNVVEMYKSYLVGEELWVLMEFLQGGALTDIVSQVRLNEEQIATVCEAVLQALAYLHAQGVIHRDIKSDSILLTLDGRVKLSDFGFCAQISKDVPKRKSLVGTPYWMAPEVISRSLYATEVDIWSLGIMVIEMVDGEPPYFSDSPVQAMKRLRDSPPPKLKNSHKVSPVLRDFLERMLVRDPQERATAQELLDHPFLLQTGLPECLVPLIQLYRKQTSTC

| Structure (SMILES) | KINOMEscan: NEK3 (panel of 442 kinases [1]) | KINOMEscan: PAK6 (panel of 442 kinases [2]) |
| --- | --- | --- |
| CCOc1cc(C(=O)N2CCC(N3CCN(C)CC3)CC2)ccc1Nc1ncc2c(n1)N(C1CCCC1)c1ccccc1C(=O)N2C [Compound 26] | 83 | 100 |
| COc1cc(C(=O)N2CCC(N3CCN(C)CC3)CC2)ccc1Nc1ncc2c(n1)N(C1CCCC1)c1ccccc1C(=O)N2C [Compound 25, 11-cyclopentyl-2-((2-methoxy-4-(4-(4-methylpiperazin-1-yl)piperidine-1-carbonyl)phenyl)amino)-5-methyl-5H-benzo[e]pyrimido[5,4-b][1,4]diazepin-6(11H)-one] | 100 | 86 |
| COc1cc(C(=O)N2CCC(N3CCN(C)CC3)CC2)ccc1Nc1ncc2c(n1)N(C)c1ccccc1C(=O)N2C [15 (LRRK2-IN-1)] | 100 | 98 |
